The record followed here is patent US20150118214A1, “Pharmaceutical composition containing human cyclooxygenase and doxorubicin or doxorubicin analogue, preparation method therefor and use thereof in preparing drugs” (priority 2012, published 2015).

What all share (assay type): in vivo, human
In test [1] the test system is general inflammation in patients. Description: general anti-inflammatory analgesic use, general inflammation patients. As to conditions: two or more cycles. From the text: Containing native human cyclooxygenase (COX-2), doxorubicin natural (atm) or a pharmaceutical composition of doxorubicin substances of natural origin as a general anti-inflammatory analgesic drugs applied, general inflammation in patients diagnosed according to the usual criteria for diagnosis; “effective”, “cured”, “cure” and the like in accordance with conventional criteria standards. Dose of the drug present invention are: adult three times daily 1.8 g. Course of seven days When two or more cycles, the treatment effect of contrast in the following table: […]

A further test concerns nephritis patients. Description: treatment of nephritis patients, rates by traditional standard. The conditions noted are these: six or more cycles, course of seven days. From the text: Containing native cyclooxygenase (COX-2) doxorubicin pharmaceutical compositions of natural (atm) doxorubicin or a natural substance in the class of drugs for treating nephritis application preparation, nephritis patients diagnosed according to the usual Standard diagnosis; “effective”, “markedly”, “cure” and other standards are in accordance with the traditional standard. Dose of the drug present invention are: adult three times daily 1.8 g. Course of seven days. When six or more cycles, the treatment effect of contrast in the following table: […]

Test [2] concerns cancer (lymphoma) patients. Description: treatment of tumors, cancer (lymphoma) patients. The source says: Containing native human cyclooxygenase (COX-2), doxorubicin natural (atm) or natural substance class doxorubicin in the preparation of a pharmaceutical composition of a medicament for the treatment of tumors, cancer (lymphoma) patients diagnosed is the usual criteria for diagnosis; “effective”, “cured”, “cure” and the like in accordance with conventional criteria standards. Dose of the drug present invention are: adult three times a day, every 1.8 go for 7 days. When eight or more cycles, the treatment effect of contrast in the following table: […]

Turning to `[H]/N=C(/N)N[C@H]1[C@H](O)[C@@H](O)[C@H](O[C@@H]2O[C@@H](C)[C@](O)(C=O)[C@H]2O[C@@H]2O[C@@H](CO)[C@H](O)[C@@H](O)[C@@H]2NC)[C@@H](N/C(N)=N\[H])[C@@H]1O` [Streptomycin], in test [1], the Invalid is listed as 17.14% and the Markedly was determined as 78.57%. The same compound showed an Effective in test [1] (course of seven days, invention drug adult three times daily 1.8 g) of 14.29%.

In turn, `CC(C)(C)NCC(O)COc1ccccc1C#N` (stereo not drawn) [Bunitrolol] showed a Markedly with nephritis patients of 59%. This compound registered an Effective in the test with nephritis patients (invention drug adult three times daily 1.8 g) of 93.2%.

Regarding `CC(=O)O[C@H]1C(=O)[C@@]2(C)[C@H]([C@H](OC(=O)c3ccccc3)[C@]3(O)C[C@H](OC(=O)[C@H](O)[C@@H](NC(=O)c4ccccc4)c4ccccc4)C(C)=C1C3(C)C)[C@]1(OC(C)=O)CO[C@@H]1C[C@@H]2O` [Paclitaxel], in test [2] (eight or more cycles), the Cure was 16.3%, the Invalid is listed as 2.3% and the Markedly worked out at 32.6%. In test [2] (eight or more cycles of 7 days, invention drug adult three times a day 1.8 g), this compound came in with an Effective of 48.8%.
